Data: PubChem BioAssay (NCI)
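Here, GI50 denotes the concentration required for 50% inhibition of growth. At the TGI there is no net growth.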

Tests used:
Assay in all cases: NCI tumour cell line growth inhibition, 384-well format
[1] = system: SK-MEL-28 melanoma
[2] = system: SN12C renal
[3] = system: ACHN renal
[4] = system: BT-549 breast
[5] = system: HCC-2998 colon
[6] = system: K-562 leukemia
[7] = system: NCI-H460 NSCLC
[8] = system: NCI-H322M lung
[9] = system: SF-268 CNS
[10] = system: OVCAR-5 ovarian
[11] = system: COLO 205 colon
[12] = system: LOX IMVI melanoma
[13] = system: NCI-H226 lung
[14] = system: MDA-MB-435 melanoma
[15] = system: 786-0 renal
[16] = system: HT29 colon
[17] = system: NCI/ADR-RES ovarian
[18] = system: SK-MEL-2 melanoma
[19] = system: UO-31 renal
[20] = system: HOP-62 NSCLC
[21] = system: NCI-H522 lung
[22] = system: SNB-19 CNS
[23] = system: UACC-62 melanoma
[24] = system: CCRF-CEM leukemia
[25] = system: SK-OV-3 ovarian
[26] = system: SK-MEL-5 melanoma
[27] = system: A498 renal
[28] = system: DU-145 prostate

Compound: COc1cccc2c1C(=O)c1c(O)c3c(c(O)c1C2=O)C[C@@](O)(/C(CO)=N/NC(=O)CCCCCN1C(=O)C=CC1=O)C[C@@H]3O[C@H]1C[C@H](N)[C@H](O)[C@H](C)O1
- GI50 [1]: 126 nM
- TGI [1]: 519 nM
- GI50 [2]: 139 nM
- TGI [2]: 391 nM
- GI50 [3]: 258 nM
- TGI [3]: 1360 nM
- GI50 [4]: 59.9 nM
- TGI [4]: 271 nM
- GI50 [5]: 123 nM
- TGI [5]: 294 nM
- GI50 [6]: 114 nM
- TGI [6]: 1060 nM
- GI50 [7]: 25.2 nM
- TGI [7]: 136 nM
- GI50 [8]: 917 nM
- TGI [8]: 2680 nM
- GI50 [9]: 71.4 nM
- TGI [9]: 372 nM
- GI50 [10]: 522 nM
- TGI [10]: 3000 nM
- GI50 [11]: 36.6 nM
- TGI [11]: 183 nM
- GI50 [12]: 166 nM
- TGI [12]: 381 nM
- GI50 [13]: 122 nM
- TGI [13]: 288 nM
- GI50 [14]: 268 nM
- TGI [14]: 1480 nM
- GI50 [15]: 110 nM
- TGI [15]: 368 nM
- GI50 [16]: 148 nM
- TGI [16]: 780 nM
- GI50 [17]: 12300 nM
- TGI [17]: 44900 nM
- GI50 [18]: 101 nM
- TGI [18]: 229 nM
- GI50 [19]: 1260 nM
- TGI [19]: 3130 nM
- GI50 [20]: 103 nM
- TGI [20]: 273 nM
- GI50 [21]: 29.4 nM
- TGI [21]: 148 nM
- GI50 [22]: 127 nM
- TGI [22]: 553 nM
- GI50 [23]: 75.9 nM
- TGI [23]: 233 nM
- GI50 [24]: 15.3 nM
- TGI [24]: 34 nM
- GI50 [25]: 138 nM
- TGI [25]: 339 nM
- GI50 [26]: 124 nM
- TGI [26]: 328 nM
- GI50 [27]: 95.8 nM
- TGI [27]: 1440 nM
- GI50 [28]: 152 nM
- TGI [28]: 365 nM
